Measured values from PMC9241057, “Ru(II)arene(N^N bpy/phen)-based RAPTA complexes for in vitro anti-tumour activity in human glioblastoma cancer cell lines and in vivo toxicity studies in a zebrafish model” (RSC Advances, 2022).

How the values were obtained:
T98G cells = test: Neurosphere assay; type: cell-based, human; settings: T98G, 20, 80 and 160 μM
Procedure: The neurosphere assay is one of the best methods for analysing the stem cell capacity of isolated brain cells.[23] The stem cell media was used to grow T98G cells through single-cell division within 3 days and subsequently the development of small-diameter “neurosphere-like” tumour spheres within 7 days. After 12–14 days of culture, a phase-contrast microscope was used to take the image of the tumour spheres. To promote differentiation, DMEM (containing 10% FBS) medium was added to the tumour spheres.
Fig. 5 Neurosphere assay using different concentrations: (b) 20 μM, (c) 80 μM and (d) 160 μM of complex 4c against the T98G cell line; (a) pre-treatment (concentration of 4c = 0 μM).
Serum-free DMEM/F-12 (1 : 1), B27 (1 : 50), EGF (20 μg L^−1), bFGF (20 μg L^−1), antibiotic (Gibco) were added to stem cell media. The cells were grown in a tissue culture incubator with 5% CO2 at […]. Serum-free media were changed twice a week.

Ct-DNA = test: DNA binding study, UV-visible absorption titration; parameters: species or system calf
Procedure: The DNA binding proficiency of RAPTA complexes was explored by applying the concept of electronic absorption titration. The binding propensity of the RAPTA complex, 4c with Ct-DNA, was investigated using UV-visible studies. […] From the plot of [DNA]/(εa − εf) vs. [DNA] the intrinsic binding constant (Kb) was recognized for the specified 4c–DNA conjugate.
The binding capability of the complexes with calf-thymus DNA (Ct-DNA) was evaluated using electronic absorption spectroscopy, and the competitive binding assay was studied using ethidium bromide (EtBr) as a quencher by fluorescence spectroscopy.
The DNA binding experiment was performed in aqueous medium using RAPTA complex 4c in Tris-HCl buffer (5 mM Tris-HCl in water, pH 7.4). The concentration of Ct-DNA was determined using its absorbance at 260 nm and a known molar absorption coefficient of 6600 M-1.cm-1. In cuvettes, an equal amount of DNA was introduced to both the sample and the reference. […] The sample was equilibrated with CT-DNA for around 5 minutes before each measurement, and then the complex's absorbance was measured. The intrinsic DNA binding constant (K b) was calculated using the equation (i): […]
UV and Fluorescence study
All of these RAPTA complexes were studied in a 10% DMSO solution using UV and fluorescence. […] Quantum yield was calculated according to the equation (ii): […]

With `C1N2CN3CN1CP(C2)C3.Cc1ccc(C(C)C)cc1.Cc1ccnc2c1ccc1c(C)ccnc12.F[P-](F)(F)(F)(F)F.F[P-](F)(F)(F)(F)F.[Ru+2]` [4c, [(η^6-p-Cymene)Ru^II(κ^2-N,N-4,7dimethylphenanthroline)(PTA)]·2PF6] the effect on neurospheres (T98G cells) was “Complete developmental neurotoxicity”, the Change in absorbance (Ct-DNA) was “Hyperchromism” and the “Δε (%), % of hyperchromism/hypochromism” value (Ct-DNA) was 50%.
